Here are results for 3 compounds from patent publication US12071423B2, “Processes and intermediate for the large-scale preparation of 2,4,6-trifluoro-N-[6-(1-methyl-piperidine-4-carbonyl)-pyridin-2-yl]-benzamide hemisuccinate, and preparation of 2,4,6-trifluoro-N-[6-(1-methyl-piperidine-4-carbonyl)-pyridin-2-yl]-benzamide acetate” (Eli Lilly and Company, priority 2019, dated 2024).

Assay type in all cases: physicochemical
Series [1] is described as follows: Solubility in 10 mmol acetate, citrate or phosphate buffer (excess solid equilibrated at RT overnight, HPLC). On the procedure: Lasmiditan acetate was discovered to enable a desired dose target of about 50 mg in the minimal volume of less than or equal to about 1 mL, while at the same time achieving a desired target pH being close to neutral, and in addition being relatively isotonic and physically and chemically stable. […] For solubility determinations 10 mmol buffer is made with a respective acid and salt, and pH is adjusted by changing the acid/salt ratio. Excess solid is equilibrated at RT overnight, and solution concentration is analyzed by HPLC and solid was characterized by XRPD. In contrast, for lasmiditan acetate it was discovered that solubility of >50 mg/mL can be achieved, at close to neutral pH, without adjusting the pH.

Series [2] is described as follows: Form and chemical stability studies of the intermediate. The source says:
[drawing 6] which can be named as (6-amino-2-pyridyl)-(1-methyl-4-piperidyl)methanone dihydrate dihydrochloride. Preferably this compound is crystalline. (6-amino-2-pyridyl)-(1-methyl-4-piperidyl)methanone dihydrate dihydrochloride is particularly useful in the preparation of 2,4,6-trifluoro-N-[6-(1-methylpiperidine-4-carbonyl)-2-pyridyl]benzamide hemisuccinate, and processes which employ (6-amino-2-pyridyl)-(1-methyl-4-piperidyl)methanone dihydrate dihydrochloride may provide advantageous process characteristics, including but not limited to the purity of intermediate and/or final materials. (6-amino-2-pyridyl)-(1-methyl-4-piperidyl)methanone dihydrate dihydrochloride is believed to be a new stable hydrated form of 6-amino-2-pyridyl)-(1-methyl-4-piperidyl)methanone. The process to isolate (6-amino-2-pyridyl)-(1-methyl-4-piperidyl)methanone dihydrate dihydrochloride described herein provides improved impurity rejection and an improved controlled crystallization process. […] Use of this intermediate provides advantageously high purity product at expected yield.

The nature of series [3]: Dissolution of lasmiditan acetate at 50 mg/mL: pH and tonicity of the solution. The note with it: dissolution at 50 mg/mL. The procedure: (§1) Lasmiditan acetate enables the desired solubility to provide high concentration formulations having a less than or equal to about 1 mL dose volume, for the desired unit doses, which is critical for clinical applications such as use in available autoinjector devices. In addition, dissolution of lasmiditan acetate at 50 mg/mL results in close to neutral pH (pH approximately 6.8), is isotonic, and stable for at least 2 months.

A short description of series [4]: Stability of lasmiditan acetate 50 mg/mL solution. The following applies: dissolution at 50 mg/mL. The procedure: as §1

Structures can show the parent of a compound that is named as a salt. Where two headings read alike, the source gives them in different places. Some results are limits rather than exact numbers.

As for `CN1CCC(C(=O)c2cccc(NC(=O)c3c(F)cc(F)cc3F)n2)CC1` [lasmiditan hemisuccinate, 2,4,6-trifluoro-N-[6-(1-methylpiperidine-4-carbonyl)-2-pyridyl]benzamide hemisuccinate, reference compound], the “achieving >50 mg/mL solubility” value in series [1] (at close to neutral pH) is “difficult without using co-solvents”.

Take `CN1CCC(C(=O)c2cccc(N)n2)CC1` [(6-amino-2-pyridyl)-(1-methyl-4-piperidyl)methanone dihydrate dihydrochloride]: in series [2], the “form and chemical stability” value is “generally stable”.

Take `CC(=O)O.CN1CCC(C(=O)c2cccc(NC(=O)c3c(F)cc(F)cc3F)n2)CC1` [Lasmiditan Acetate, 2,4,6-trifluoro-N-[6-(1-methylpiperidine-4-carbonyl)-2-pyridyl]benzamide acetate]: the pH on dissolution result in series [3] is reported as “approximately 6.8”. The tonicity of solution entry in series [3] is “isotonic”. In series [4], the stability of solution result is “at least 2 months”. Besides, the “solubility compared with lasmiditan hemisuccinate salt” value in series [1] is recorded as “significantly higher solubility”. The solubility is over 441 mg/mL in series [1] (10 mmol acetate buffer, pH 3.69, aqueous buffer, thermodynamic from solid, Acetate buffer, pH (before) 3.69, free base eq., all added solute went into solution, read-out: Solubility (Free Base eq. mg/mL)); over 430 mg/mL in series [1] (10 mmol acetate buffer, pH 4.05, aqueous buffer, thermodynamic from solid, Acetate buffer, pH (before) 4.05, free base eq., all added solute went into solution, read-out: Solubility (Free Base eq. mg/mL)); over 412 mg/mL in series [1] (10 mmol acetate buffer, pH 4.4, aqueous buffer, thermodynamic from solid, Acetate buffer, pH (before) 4.4, free base eq., all added solute went into solution, read-out: Solubility (Free Base eq. mg/mL)); over 430 mg/mL in series [1] (10 mmol acetate buffer, pH 5.09, aqueous buffer, thermodynamic from solid, Acetate buffer, pH (before) 5.09, free base eq., all added solute went into solution, read-out: Solubility (Free Base eq. mg/mL)); over 486 mg/mL in series [1] (10 mmol acetate buffer, pH 5.71, aqueous buffer, thermodynamic from solid, Acetate buffer, pH (before) 5.71, free base eq., all added solute went into solution, read-out: Solubility (Free Base eq. mg/mL)); over 50 mg/mL in series [1] (10 mmol buffer (acetate, citrate or phosphate), pH 6.8, thermodynamic from solid, at close to neutral pH, without adjusting the pH, read-out: solubility). In addition, the solubility is over 300 mg/mL in series [1] (10 mmol citrate buffer, pH 2.5, aqueous buffer, thermodynamic from solid, Citrate buffer, pH (before) 2.5, free base eq., all added solute went into solution, read-out: Solubility (Free Base eq. mg/mL)); over 300 mg/mL in series [1] (10 mmol citrate buffer, pH 3.84, aqueous buffer, thermodynamic from solid, Citrate buffer, pH (before) 3.84, free base eq., all added solute went into solution, read-out: Solubility (Free Base eq. mg/mL)); over 300 mg/mL in series [1] (10 mmol citrate buffer, pH 4.99, aqueous buffer, thermodynamic from solid, Citrate buffer, pH (before) 4.99, free base eq., all added solute went into solution, read-out: Solubility (Free Base eq. mg/mL)); over 300 mg/mL in series [1] (10 mmol citrate buffer, pH 5.96, aqueous buffer, thermodynamic from solid, Citrate buffer, pH (before) 5.96, free base eq., all added solute went into solution, read-out: Solubility (Free Base eq. mg/mL)); over 300 mg/mL in series [1] (10 mmol phosphate buffer, pH 8.24, aqueous buffer, thermodynamic from solid, Phosphate buffer, pH (before) 8.24, free base eq., all added solute went into solution, read-out: Solubility (Free Base eq. mg/mL)). In addition, the “pH (after)” value in series [1] (Acetate buffer, pH (before) 3.69) came to 6.25; in series [1] (Acetate buffer, pH (before) 4.05), 6.41; in series [1] (Acetate buffer, pH (before) 4.4), 6.31; in series [1] (Acetate buffer, pH (before) 5.09) it was 6.50; in series [1] (Acetate buffer, pH (before) 5.71) it was 6.56; in series [1] (Citrate buffer, pH (before) 2.5) it was 5.60. The “pH (after)” value in series [1] (Citrate buffer, pH (before) 3.84) amounted to 5.72; in series [1] (Citrate buffer, pH (before) 4.99), 6.23; in series [1] (Citrate buffer, pH (before) 5.96) it was 6.24; in series [1] (Phosphate buffer, pH (before) 8.24) it was 6.42.
